Data taken from US20170233409A1, “TYPE IV SECRETION SYSTEM INHIBITORS” (priority 2016, published 2017).

What was measured:
[1] = system: H. pylori cag T4SS; format: cell-based; conditions: for T4SS Inhibiton [50 μM] (TLR9 Activation Assay): no bacterial pre-treatment, about 18 hours post-infection, HEK293-TLR9 cells
[2] = system: cag T4SS; format: cell-based, H. pylori; conditions: screening library, tested concentrations
[3] = system: H. pylori; assay: H. pylori viability (cellular ATP, CellTiter-Glo); format: cell-based; conditions: for H. pylori Toxicity: 150 μM, cellular ATP at 18 h of incubation; for viability of bacterial cells: concentrations up to 150 μM
[4] = system: cag T4SS; format: cell-based, H. pylori; conditions: for LogEC50, attenuation of cag T4SS-dependent IL-8 secretion / EC50: 4.5 h co-culture, normalized IL-8 secretion, non-linear regression; for cag T4SS-dependent IL-8 secretion: H. pylori-gastric epithelial cell co-culture, 25-150 μM; for EC50: read-out: EC50, attenuation of cag T4SS-dependent IL-8 secretion
[5] = system: cag T4SS; assay: NF-κB luciferase reporter activation by H. pylori in AGS cells; format: cell-based; conditions: for cag T4SS-dependent NF-κB activation: WT H. pylori, AGS NF-κB-luc cells
Protocol: Quantitation of NF-κB signaling activation. AGS cells stably transfected with an NF-κB-luciferase reporter (AGS NF-κB-luc) were cultured for 24 h and treated as described for the IL-8 induction studies. After 4 h co-culture with H. pylori, cell monolayers were washed with sterile PBS, and cell monolayer extracts were obtained by passive cell lysis. NF-κB-luciferase activity was measured by the Steady-Glo Luciferase Assay System (Promega) on a BioTek Synergy 4 plate reader, and plates were normalized to the DMSO vehicle control for each dilution series.

[6] = system: cag T4SS; assay: CagA translocation assay (tyrosine-phosphorylated CagA immunoblot); format: cell-based, H. pylori; conditions: 150 μM; compared to vehicle-only and GKP42-treated controls
[7] = biological target: T1, TLR9 (Homo sapiens, UniProt Q9NR96); assay: TLR9 activation by CpG ODN (control); format: cell-based; conditions: 50 μM
T1 construct: host or cells: HEK293-TLR9 reporter cell line
T1 sequence (Q9NR96 26-1032): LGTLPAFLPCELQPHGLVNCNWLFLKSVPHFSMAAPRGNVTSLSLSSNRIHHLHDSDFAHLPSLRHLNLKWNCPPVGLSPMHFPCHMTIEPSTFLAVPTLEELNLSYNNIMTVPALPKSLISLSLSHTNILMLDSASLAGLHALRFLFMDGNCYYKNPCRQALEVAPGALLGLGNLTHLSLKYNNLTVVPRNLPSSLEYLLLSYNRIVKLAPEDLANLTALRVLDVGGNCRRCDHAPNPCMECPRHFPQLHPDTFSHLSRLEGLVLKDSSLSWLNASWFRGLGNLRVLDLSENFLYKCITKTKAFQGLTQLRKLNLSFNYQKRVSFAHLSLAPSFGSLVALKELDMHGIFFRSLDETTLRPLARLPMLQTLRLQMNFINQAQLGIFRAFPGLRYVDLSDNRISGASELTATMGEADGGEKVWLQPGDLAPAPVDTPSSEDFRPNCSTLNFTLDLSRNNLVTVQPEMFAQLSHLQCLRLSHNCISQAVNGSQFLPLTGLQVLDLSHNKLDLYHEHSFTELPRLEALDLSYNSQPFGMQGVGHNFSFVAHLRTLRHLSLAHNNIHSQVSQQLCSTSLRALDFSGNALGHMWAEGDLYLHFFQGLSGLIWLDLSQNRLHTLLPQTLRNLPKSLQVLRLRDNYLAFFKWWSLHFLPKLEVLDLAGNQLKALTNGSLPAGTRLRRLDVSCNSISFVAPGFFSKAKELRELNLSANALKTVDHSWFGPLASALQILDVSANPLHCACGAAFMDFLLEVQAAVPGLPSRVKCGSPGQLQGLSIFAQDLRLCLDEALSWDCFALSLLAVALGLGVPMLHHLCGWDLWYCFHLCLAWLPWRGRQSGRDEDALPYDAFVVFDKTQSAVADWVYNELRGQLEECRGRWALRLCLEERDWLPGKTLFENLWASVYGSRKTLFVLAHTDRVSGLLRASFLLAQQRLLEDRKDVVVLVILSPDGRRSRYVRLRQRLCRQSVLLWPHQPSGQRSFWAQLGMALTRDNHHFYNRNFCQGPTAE
Protocol: Inhibition of T4SS-dependent activation of human TLR9 signaling by H. pylori. H. pylori strain J166 was grown in broth culture overnight, and was subsequently pre-treated in the indicated compound at a final concentration of 50 μM, or in an equivalent volume of DMSO vehicle for 30 min prior to inoculating cultured HEK293-TLR9 reporter cell lines. Co-cultures were incubated in the presence of 50 μM compound or an equivalent volume of DMSO vehicle supplemented in the cell culture media for the duration of incubation (18 hours). TLR9 activation was assayed using a colorimetric assay (Invivogen), and TLR9 activation in the presence of type IV secretion system (T4SS) inhibitor compounds is expressed as a percentage of TLR9 activation by H. pylori in the presence of vehicle. As a control, TLR9 was activated with the immunostimulatory synthetic ligand CpG oligodeoxynucleotide (CpG ODN) in the presence of DMSO or inhibitor compound at 50 μM final concentration.

[8] = system: IncF group R1-16 conjugative T4SS; assay: DNA conjugation efficiency, R1-16; conditions: 150 μM
Protocol: (§1) Analysis of DNA conjugation efficiency. Overnight cultures of donor E. coli MG1655 harboring pKM101, donor E. coli MS411 harboring R1-16, and recipient E. coli MG1655 (WM1652) were grown at 37° C. with shaking at 225 rpm in LB/antibiotic, were diluted in antibiotic-free LB containing DMSO or 150 μM compound, and incubated with shaking at 37° C. to reach an OD600 of ˜0.3. Donor and recipient cells were mixed at a ratio of 1:1 on 0.22 μM pore size mixed cellulose ester filters (Millipore) on antibiotic-free LB plates for 2 h at 37° C. Filters were aseptically removed from LB plates and incubated in 100 μl antibiotic-free LB to dislodge E. coli from membranes. Serial dilutions were plated on the appropriate antibiotic (or dual antibiotic) LB plates to determine the number of donor, recipient, and transconjugant cells. Colonies were enumerated after 24 h, and conjugation efficiencies were calculated by dividing the average number of transconjugates by the average number of donors (either pKM101 or R1-16 donor cells). Conjugation efficiency in the presence of compound is expressed as a percentage of conjugation efficiency in DMSO.

[9] = system: IncN group conjugative T4SS encoded by pKM101; assay: DNA conjugation efficiency, pKM101; conditions: 150 μM, compared to vehicle controls
Protocol: as §1

O=C(O)C1CS(=O)(=O)c2c(C3CC3)c(Cc3cccc4ccccc34)cc(=O)n21 (stereo not shown) [TW460, 8-cyclopropyl-7-(naphthalen-1-ylmethyl)-5-oxo-2,3-dihydro-5H-thiazolo[3,2-a]pyridine-3-carboxylic acid 1,1-dioxide]
T4SS Inhibiton [50 μM] (TLR9 Activation Assay) [1]: +

O=C(O)c1c(Cc2ccccc2)sc2c(C3CC3)c(Cc3cccc4ccccc34)cc(=O)n12 [EC240, reference compound]
cag T4SS activity, structure-activity statements [2]: not tolerated | H. pylori Toxicity [3]: Toxic

O=C(O)[C@@H]1CSc2c(C3CC3)c(Cc3ccc4ccccc4c3)cc(=O)n21 [KSK61, (R)-8-cyclopropyl-7-(naphthalen-2-ylmethyl)-5-oxo-2,3-dihydro-5H-thiazolo[3,2-a]pyridine-3-carboxylic acid]
T4SS Inhibiton [50 μM] (TLR9 Activation Assay) [1]: ++

Cc1cccc(-c2sc3c(-c4cn(C)c5ccccc45)c(COc4cccc5ccccc45)c(CN4CCOCC4)c(=O)n3c2C(=O)O)c1.Cl [EC341]
H. pylori Toxicity [3]: Toxic

O=C(Nc1ccccc1)C1CSc2c(C3CC3)c(Cc3cccc4ccccc34)cc(=O)n21 (stereo not shown) [KSK165]
T4SS Inhibiton [50 μM] (TLR9 Activation Assay) [1]: +++ (Very good T4SS inhibition (reproducibly inhibits T4SS activity by at least 50%, with representative results of about 80% inhibition at higher concentrations))

O=C(O)[C@@H]1CSc2c(-c3cccc(C(F)(F)F)c3)c(Cc3cccc(COc4cccc5ccccc45)c3)cc(=O)n21 [CB151]
H. pylori Toxicity [3]: Toxic

O=C(O)C1CSc2c(C3CC3)c(Cc3ccc(OC4O[C@H](CO)[C@@H](O)[C@@H](O)[C@@H]4O)c4ccccc34)cc(=O)n21 (stereo partly drawn) [PS402, 8-cyclopropyl-5-oxo-7-((4-(((3S,4R,5S,6R)-3,4,5-trihydroxy-6-(hydroxymethyl)tetrahydro-2H-pyran-2-yl)oxy)naphthalen-1-yl)methyl)-2,3-dihydro-5H-thiazolo[3,2-a]pyridine-3-carboxylic acid]
T4SS Inhibiton [50 μM] (TLR9 Activation Assay) [1]: ++

O=C(O)C1CSc2c(C3CC3)c(Cc3cccc4ccccc34)cc(=O)n21 (racemic) [rac-C10]
T4SS Inhibiton [50 μM] (TLR9 Activation Assay) [1]: ++

O=c1cc(Cc2cccc3ccccc23)c(C2CC2)c2n1CCS2 [EC013]
T4SS Inhibiton [50 μM] (TLR9 Activation Assay) [1]: +++ (Very good T4SS inhibition (reproducibly inhibits T4SS activity by at least 50%, with representative results of about 80% inhibition at higher concentrations))

O=C(O)C1CSc2c(C3CC3)c(Cc3ccc(C(F)(F)F)c4ccccc34)cc(=O)n21 (stereo not shown) [KSK88, 8-cyclopropyl-5-oxo-7-((4-(trifluoromethyl)naphthalen-l1yl)methyl)-2,3-dihydro-5H-thiazolo[3,2-a]pyridine-3-carboxylic acid]
T4SS Inhibiton [50 μM] (TLR9 Activation Assay) [1]: +++ (Very good T4SS inhibition (reproducibly inhibits T4SS activity by at least 50%, with representative results of about 80% inhibition at higher concentrations))

CCOc1ccc(Cc2cc(=O)n3c(c2C2CC2)SC[C@H]3C(=O)O)c2ccccc12 [(R)-JG131, (R)-8-cyclopropyl-7-((4-ethoxynaphthalen-1-yl)methyl)-5-oxo-2,3-dihydro-5H-thiazolo[3,2-a]pyridine-3-carboxylic acid]
T4SS Inhibiton [50 μM] (TLR9 Activation Assay) [1]: +++ (Very good T4SS inhibition (reproducibly inhibits T4SS activity by at least 50%, with representative results of about 80% inhibition at higher concentrations))

O=C(O)[C@H]1CSc2c(C3CC3)c(Cc3cccc4ccccc34)cc(=O)n21 [JG14, (S)-8-cyclopropyl-7-(naphthalen-1-ylmethyl)-5-oxo-2,3-dihydro-5H-thiazolo[3,2-a]pyridine-3-carboxylic acid]
T4SS Inhibiton [50 μM] (TLR9 Activation Assay) [1]: ++

O=C(O)[C@@H]1CSc2c(C3CC3)c(Cc3cccc(COc4cccc5ccccc45)c3)cc(=O)n21 [CB160]
H. pylori Toxicity [3]: Toxic

O=C(O)[C@@H]1CSc2c(C3CC3)c(Cc3cccc4ccccc34)cc(=O)n21 [Compound C10, (3R)-8-cyclopropyl-7-(naphthalen-1-ylmethyl)-5-oxo-3,5-dihydro-2H-thiazolo[3,2-a]pyridine-3-carboxylic acid]
viability of bacterial cells [3]: did not impact viability | LogEC50, attenuation of cag T4SS-dependent IL-8 secretion [4]: −1.19 | cag T4SS-dependent IL-8 secretion [4]: significantly reduced | EC50 [4]: 64.5 µM | cag T4SS-dependent NF-κB activation [5]: significantly reduced | cag T4SS-mediated NF-κB activation by H. pylori strains of different phylogeographic origins ([5]; multiple H. pylori strains): inhibited | NF-κB activation by H. pylori ΔcagA mutant compared to WT strain ([5]; ΔcagA mutant): the same as those observed in the WT strain | amount of tyrosine-phosphorylated CagA in cultured gastric epithelial cells [6]: significantly reduced | T4SS Inhibiton [50 μM] (TLR9 Activation Assay) [1]: ++ | T4SS-dependent activation of TLR9 by H. pylori ([1]; strain J166 pre-treated 30 min, 50 μM, 18 hours): inhibit | activation of TLR9 by CpG ODN [7]: not by CpG ODN | DNA conjugation efficiency of the de-repressed R1-16 system [8]: reduced DNA transfer | DNA conjugation efficiency of pKM101 [9]: reduced

COc1ccc2cc(Cc3cc(=O)n4c(c3C3CC3)SC[C@H]4C(=O)O)ccc2c1 [CB158, (R)-8-cyclopropyl-7-((6-methoxynaphthalen-2-yl)methyl)-5-oxo-2,3-dihydro-5H-thiazolo[3,2-a]pyridine-3-carboxylic acid]
T4SS Inhibiton [50 μM] (TLR9 Activation Assay) [1]: +

O=C([O-])[C@@H]1CSc2c(-c3ccccc3)c(Cc3cccc4ccccc34)cc(=O)n21.[Li+] [PhenylC8]
cag T4SS activity, structure-activity statements [2]: not tolerated

O=C([O-])[C@@H]1CSc2c(C3CC3)c(Cc3cccc4ccccc34)c(CN3CCOCC3)c(=O)n21.[Li+] [NP048]
cag T4SS activity, structure-activity statements [2]: abolished activity

O=C(O)[C@@H]1CSc2c(C3CC3)c3cn(-c4ccccc4)cc3c(=O)n21 [GKP42, (3R)-9-cyclopropyl-5-oxo-7-phenyl-2,3,5,7-tetrahydropyrrolo[3,4-d][1,3]thiazolo[3,2-a]pyridine-3-carboxylic acid]
cag T4SS activity, structure-activity statements [2]: inactive | viability of bacterial cells [3]: did not impact viability | LogEC50, attenuation of cag T4SS-dependent IL-8 secretion [4]: −0.648 | cag T4SS-dependent IL-8 secretion [4]: minimal or no effects | EC50 [4]: 225 µM | cag T4SS-dependent NF-κB activation [5]: did not attenuate

COc1ccc(Cc2cc(=O)n3c(c2C2CC2)SC[C@@H]3C(=O)O)c2ccccc12 [(S)-JG202, (S)-8-cyclopropyl-7-((4-methoxynaphthalen-1-yl)methyl)-5-oxo-2,3-dihydro-5H-thiazolo[3,2-a]pyridine-3-carboxylic acid]
T4SS Inhibiton [50 μM] (TLR9 Activation Assay) [1]: ++

O=C(O)[C@@H]1CSc2c(-c3cccc(C(F)(F)F)c3)c(Cc3cccc4ccccc34)cc(=O)n21 [FN075, reference compound]
cag T4SS activity, structure-activity statements [2]: not tolerated | H. pylori Toxicity [3]: Toxic

O=C(O)[C@@H]1CSc2c(C3CC3)c3c(-c4cccc5ccccc45)n[nH]c3c(=O)n21 [MS218]
cag T4SS activity, structure-activity statements [2]: inactive
